Where “and” joins values, the source holds several entries; their conditions need not be identical. Equal values may be shown once. Each block holds one molecule with its values, some of them ahead of it.
Test: solvent given as SMILES
[1] = in O=P(c1ccccc1)(c1ccccc1)c1ccccc1Oc1ccccc1P(=O)(c1ccccc1)c1ccccc1

fluorescence lifetime (in C1CCCCC1): 0.184 ns | fluorescence lifetime (in CC#N): 0.06 ns | fluorescence lifetime (in CCO): 0.07 ns | fluorescence lifetime (in CCOC(C)=O): 0.082 ns | fluorescence lifetime (in CO): 0.063 ns | fluorescence lifetime (in OCC(F)(F)F): 0.069 ns
SMILES: Cc1ccc(C2=C3C=C(I)C=[N+]3[B-](F)(F)n3cccc32)cc1

fluorescence lifetime (in C1COCCO1): 2.9 ns
SMILES: CCC12C(=C3C(=C4c5ccc(-c6ccc(CO)cc6)cc5S(=O)(=O)C41CC)C(F)(F)C(F)(F)C3(F)F)c1ccc(-c3ccc(CO)cc3)cc1S2(=O)=O (centres undefined)

fluorescence lifetime (in C1CCOC1): 0.3 ns | fluorescence lifetime (in ClCCl): 0.3 ns
SMILES: CCCCCCCc1ccc(C2=[N+]3C(=C4c5cc(OCC(CC)CC)c(-c6ccc(CCCCCCC)o6)n5[B-](F)(F)[n+]5nnn(c54)[B-]3(F)F)C=C2OCC(CC)CC)o1

fluorescence lifetime (in CCO): 4.05 ns | fluorescence lifetime (in ClC(Cl)Cl): 2.65 ns | fluorescence lifetime (in ClCCl): 4.97 ns
SMILES: CCN(CC)c1ccc2cc3c([o+]c2c1)/C(=C/Nc1ccccc1)CCC3

SMILES: O=S(=O)(c1ccc(N2c3ccccc3Oc3ccccc32)cc1)c1ccc(N2c3ccccc3Oc3ccccc32)cc1
fluorescence lifetime (in C1COCCO1): 19 ns | fluorescence lifetime (in CC(C)=O): 4.3 ns | fluorescence lifetime (in Cc1ccccc1): 15 ns | fluorescence lifetime (in ClC(Cl)Cl): 16 ns | fluorescence lifetime (in c1cc(-n2c3ccccc3c3ccccc32)cc(-n2c3ccccc3c3ccccc32)c1): 14 ns

fluorescence lifetime (in ClCCl): 2.15 ns
SMILES: Cn1c2ccccc2c2cc(/C=C/C3=[O+][B-](F)(F)OC(/C=C/c4ccc5c(c4)c4ccccc4n5C)=C3c3ccccc3)ccc21

fluorescence lifetime (in CC#N): 0.35 ns | fluorescence lifetime (in CCO): 4.2 ns | fluorescence lifetime (in CCOC(C)=O): 0.066 ns | fluorescence lifetime (in CO): 6.7 ns | fluorescence lifetime (in ClC(Cl)Cl): 0.57 ns | fluorescence lifetime (in OCC(F)(F)F): 13 ns
SMILES: COc1ccc2cc3c(C)cc(=O)oc3cc2c1

fluorescence lifetime (in ClCCl): 2.6 ns
SMILES: Cc1ccc(C2=Nc3cccc4[n+]3[B-](c3ccccc3)(N2)NC(c2ccc(C)cc2)=N4)cc1

fluorescence lifetime (in ClCCl): 7.4 ns
SMILES: COc1ccc(C2=CC(c3cc(OC)cc(OC)c3)=[O+][B-](F)(F)O2)cc1

fluorescence lifetime (in C1CCCCC1): 12 ns
SMILES: CC(C)(C)[Si](C)(C)c1ccc([Si](C)(C)C(C)(C)C)c2ccccc12

fluorescence lifetime (in CCO): 2.12 ns | fluorescence lifetime (in ClC(Cl)Cl): 4.31 ns | fluorescence lifetime (in O): 0.27 ns
SMILES: CCOC(=O)c1ccccc1-c1c2ccc(=[N+](CC)CC)cc-2oc2c1c(=O)oc1cc(N(CC)CC)ccc12

fluorescence lifetime (in ClCCl): 6.6 ns
SMILES: F[B-]1(F)n2c(c3cccc4cccc2c43)=Nc2sc3ccccc3[n+]21

fluorescence lifetime (in CN(C)C=O): 0.95 ns
SMILES: CCCCCCCCC1(CCCCCCCC)c2cc(-c3ccc(C#N)cc3)ccc2-c2ccc(-c3ccc(C#N)cc3)cc21

fluorescence lifetime (in CCO): 2.72 ns
SMILES: CN(C)c1ccc(-c2ccc(C#N)s2)s1

SMILES: Cc1ccc2c(c1)c1cc(C)ccc1n2-c1cccc(-n2c3ccc(C)cc3c3cc(C)ccc32)c1C#N
fluorescence lifetime (in Cc1ccccc1): 5.5 ns | fluorescence lifetime [1]: 6.6 ns

fluorescence lifetime (in C1CCOC1): 0.48 ns
SMILES: Cc1sc(-c2ccc(-c3nc(-c4ccccc4)c(-c4ccccc4)[nH]3)cc2)c(C)c1C1=C(c2c(C)n(C)c3ccccc23)C(F)(F)C(F)(F)C1(F)F

SMILES: CC1(C)c2cccc(-c3nc(-c4ccccc4)nc(-c4ccccc4)n3)c2Oc2c(N3c4ccccc4Sc4ccccc43)cccc21
fluorescence lifetime (in Cc1ccccc1): 2.8 ns

fluorescence lifetime (in C1CCCCC1): 5.3 ns | fluorescence lifetime (in CC#N): 14 ns | fluorescence lifetime (in CCO): 1.1 ns
SMILES: COc1ccc2c(c1)-c1ccccc1C2=O

fluorescence lifetime (in CCO): 0.79 ns
SMILES: CC1(C)CC(/C=C/c2ccc(N3CCOCCOCCOCCOCC3)cc2)=CC(=C(C#N)C#N)C1

fluorescence lifetime (in C1CCCCC1): 3.3 ns | fluorescence lifetime (in CC#N): 3.2 ns
SMILES: C=Cc1ccc(OC)c(OC)c1

fluorescence lifetime (in CC#N): 13.3 ns | fluorescence lifetime (in CCCCCC): 9.1 ns
SMILES: c1ccc2c(c1)[nH]c1ncccc12

fluorescence lifetime (in ClCCl): 1.4 ns
SMILES: C[Si]1(C)c2cc(-c3cccs3)ccc2C=Cc2ccc(-c3cccs3)cc21

fluorescence lifetime (in CO): 0.873 ns
SMILES: CC1(C)C(/C=C/C2=C(Oc3ccc(CCN=C=S)cc3)C(=C/C=C3/N(CCCS(=O)(=O)[O-])c4ccccc4C3(C)C)/CCC2)=[N+](CCCS(=O)(=O)[O-])c2ccccc21

SMILES: COc1c(-c2ccc(N(C)C)cc2)oc2ccccc2c1=O
fluorescence lifetime (in C1CCCCC1): 0.67 ns | fluorescence lifetime (in C1CCOC1): 2.05 ns | fluorescence lifetime (in CC#N): 2.71 ns | fluorescence lifetime (in CCOC(C)=O): 1.67 ns | fluorescence lifetime (in CCOCC): 0.88 ns

SMILES: O=C(c1ccc(-n2c3ccccc3c3cc(-n4c5ccccc5c5ccccc54)ccc32)cc1)c1ccc(-n2c3ccccc3c3cc(-n4c5ccccc5c5ccccc54)ccc32)cn1
fluorescence lifetime [1]: 62 ns

fluorescence lifetime (in ClCCl): 1.8 ns
SMILES: CC(C)(C)c1ccc2c(c1)c1cc(C(C)(C)C)ccc1n2-c1ccc(-c2ccc3c(c2)C2(c4cc(-c5ccc(-n6c7ccc(C(C)(C)C)cc7c7cc(C(C)(C)C)ccc76)cc5)ccc4-3)c3ccccc3S(=O)(=O)c3ccccc32)cc1

fluorescence lifetime (in ClCCl): 7 ns
SMILES: CC(C)(C)c1ccc(-c2nc3c4ccc(-c5cc6ccccc6c6ccccc56)cc4c4cc(-c5cc6ccccc6c6ccccc56)ccc4c3n2-c2ccc(C(C)(C)C)cc2)cc1

fluorescence lifetime (in ClCCl): 13.2 ns
SMILES: CCN(CC)c1ccc2cc(-c3nc4ccccc4n3-c3ccccc3)c(=O)oc2c1

fluorescence lifetime (in ClCCl): 4.26 ns
SMILES: Fc1ccc(N(c2ccc(F)cc2)c2ccc3c4cccc5c(N(c6ccc(F)cc6)c6ccc(F)cc6)ccc(c6cccc2c63)c54)cc1

SMILES: CCN(CC)c1ccc2cc(/C=C/C(=C(C#N)C#N)c3ccc(N(c4ccccc4)c4ccccc4)cc3)c(=O)oc2c1
fluorescence lifetime (in CC(C)=O): 0.59 ns | fluorescence lifetime (in CCOC(C)=O): 1.31 ns | fluorescence lifetime (in CN(C)C=O): 0.33 ns | fluorescence lifetime (in CS(C)=O): 0.33 ns | fluorescence lifetime (in Cc1ccccc1): 0.84 ns | fluorescence lifetime (in ClCCl): 2.88 ns

SMILES: c1ccc(-c2nc(-c3ccccc3)nc(-c3ccc(-n4c5ccccc5c5cc6c(cc54)c4ccccc4n6-c4ccccc4)cc3)n2)cc1
fluorescence lifetime (in O=P(c1ccccc1)(c1ccccc1)c1ccc2oc3ccc(P(=O)(c4ccccc4)c4ccccc4)cc3c2c1): 13.4 ns

fluorescence lifetime (in ClCCl): 4.6 ns
SMILES: COc1ccc(C#Cc2c3cc4ccccc4cc3c(C#Cc3ccc(OC)cc3)c3cc4ccccc4cc23)cc1

fluorescence lifetime (in C1CCOC1): 2.06 ns
SMILES: CN(C)c1ccc(C2=Nc3scc(-c4ccccc4)[n+]3[B-](F)(F)O2)cc1

fluorescence lifetime (in ClCCl): 0.77 ns
SMILES: CCCCCCC1(CCCCCC)c2ccccc2-c2ccc(-c3ccc(-c4cc(-c5ccccn5)nc(-c5ccccn5)c4)cc3)cc21

fluorescence lifetime (in C1CCCCC1): 8 ns | fluorescence lifetime (in CC#N): 4.2 ns | fluorescence lifetime (in c1ccccc1): 10 ns
SMILES: CN(C)c1cccc2c1-c1ccccc1C2=O

fluorescence lifetime (in CO): 0.2 ns | fluorescence lifetime (in ClC(Cl)Cl): 1.52 ns
SMILES: CCN1C(=CC2=C([O-])C(=CC3=[N+](CC)c4ccccc4C3(C)C)C2=O)C(C)(C)c2ccccc21

SMILES: FC(F)(F)c1ccc(-c2nnc(-c3cc(-c4nnc(-c5ccc(C(F)(F)F)cc5)o4)c(-n4c5ccccc5c5ccccc54)cc3-n3c4ccccc4c4ccccc43)o2)cc1
fluorescence lifetime (in Cc1ccccc1): 5.1 ns | fluorescence lifetime [1]: 8.6 ns

fluorescence lifetime (in C1CCOC1): 3.7 ns | fluorescence lifetime (in C1COCCO1): 3.9 ns | fluorescence lifetime (in CC#N): 3.8 ns | fluorescence lifetime (in CC(C)O): 3.7 ns | fluorescence lifetime (in CCO): 3.7 ns | fluorescence lifetime (in CO): 3.5 ns | fluorescence lifetime (in CS(C)=O): 4.3 ns | fluorescence lifetime (in NC=O): 4.2 ns | fluorescence lifetime (in O): 0.6 ns | fluorescence lifetime (in OCC(F)(F)F): 0.8 ns | fluorescence lifetime (in [2H]OC([2H])([2H])C(F)(F)F): 1.1 ns | fluorescence lifetime (in [2H]O[2H]): 0.8 ns
SMILES: N#Cc1ccc2cc[nH]c2c1

fluorescence lifetime (in ClCCl): 6.25 ns
SMILES: Cc1ccc(N(c2ccc(C)cc2)c2ccc3c4cccc5c(N(c6ccc(C)cc6)c6ccc(C)cc6)ccc(c6cccc2c63)c54)cc1

fluorescence lifetime (in CCCCCCC): 112 ns
SMILES: COc1nc(Nc2cc3ccc4cccc5ccc(c2)c3c45)nc(OC)n1

SMILES: CC1(C)c2ccccc2N(c2ccc3c(c2)c2cc(N4c5ccccc5C(C)(C)c5ccccc54)ccc2c2nc(C#N)c(C#N)nc32)c2ccccc21
fluorescence lifetime (in O=P(c1ccccc1)(c1ccccc1)c1cccc(-c2cc(-n3c4ccccc4c4ccccc43)cc(-n3c4ccccc4c4ccccc43)c2)n1): 53.7 ns

SMILES: C[n+]1ccc(-c2cc[n+](C)cc2)cc1
fluorescence lifetime (in CC#N): 0.9 ns

SMILES: Cc1cc(=O)oc2c3c4c(cc12)CCCN4CCC3
fluorescence lifetime (in C1CCCCC1): 2.6 ns | fluorescence lifetime (in CC#N): 3.3 ns | fluorescence lifetime (in CCC#N): 4.26 ns | fluorescence lifetime (in CCCCl): 3.75 ns | fluorescence lifetime (in CCO): 4.5 ns and 4.54 ns | fluorescence lifetime (in O): 5.9 ns | fluorescence lifetime (in OC(C(F)(F)F)C(F)(F)F): 6.88 ns | fluorescence lifetime (in OCC(F)(F)F): 6.36 ns

fluorescence lifetime (in C1CCCCC1): 0.8 ns | fluorescence lifetime (in CC#N): 1.2 ns | fluorescence lifetime (in CO): 1.1 ns | fluorescence lifetime (in ClCCl): 1.1 ns
SMILES: C(C#Cc1ccc2ccc3cccc4ccc1c2c34)#Cc1cccc2ccccc12

SMILES: CCN(CC)c1cccc(C=O)c1
fluorescence lifetime (in CC#N): 11.7 ns | fluorescence lifetime (in CC(C)O): 1.47 ns | fluorescence lifetime (in CCCCCC): 5.95 ns | fluorescence lifetime (in CCOC(C)=O): 14.3 ns | fluorescence lifetime (in CS(C)=O): 21.9 ns | fluorescence lifetime (in Cc1ccccc1): 16.2 ns | fluorescence lifetime (in ClCCl): 26.6 ns

fluorescence lifetime (in CCCO): 2.6 ns
SMILES: CCOC(=O)c1ccc2c(c1)[nH]c1c3ccc(C(=O)OCC)cc3sc21

fluorescence lifetime (in C1CCOC1): 0.47 ns
SMILES: CC(C)(C)c1ccc(C2=C(c3ccc(-n4c5ccccc5c5ccccc54)cc3)S(=O)(=O)c3c2sc(-c2ccc(-n4c5ccccc5c5ccccc54)cc2)c3-c2ccc(C(C)(C)C)cc2)cc1

fluorescence lifetime (in ClCCl): 6.2 ns
SMILES: Cc1ccc(N(c2ccccc2)c2ccc3ccc4c(N(c5ccccc5)c5ccc(C)cc5)ccc5ccc2c3c54)cc1

fluorescence lifetime (in ClC(Cl)Cl): 3.5 ns
SMILES: Cc1cc(C)c(C2=C3C=CC=[N+]3[B-]3(c4ccc5ccc6cccc7ccc4c5c67)Oc4cc(O)cc5c6ccc(C)cc6c6cc2n3c6c45)c(C)c1 (centres undefined)

fluorescence lifetime (in ClCCl): 2.64 ns
SMILES: COC(=O)c1cc(=O)n(C)c2cc(-c3cccc(N(C)C)c3)sc12

fluorescence lifetime (in C1CCCCC1): 0.67 ns
SMILES: COC(=O)c1noc(-c2ccccc2)c1Cl

SMILES: Cc1ccc(C2=C3C=CC(C#Cc4ccccc4)=[N+]3[B-](F)(F)n3c(C#Cc4ccccc4)ccc32)cc1
fluorescence lifetime (in C1CCCCC1): 6.58 ns | fluorescence lifetime (in C1CCOC1): 6.62 ns | fluorescence lifetime (in C1COCCO1): 6.44 ns | fluorescence lifetime (in CCOC(C)=O): 6.74 ns | fluorescence lifetime (in CO): 6.51 ns | fluorescence lifetime (in Cc1ccccc1): 6.18 ns | fluorescence lifetime (in ClC(Cl)Cl): 6.66 ns

fluorescence lifetime (in ClCCl): 0.2 ns
SMILES: CC1=C(c2ccc(N(c3ccccc3)c3ccccc3)cc2)C(C)=[N+]2C1=C(c1c(-c3ccccn3)nc3ccccn13)c1c(C)cc(C)n1[B-]2(F)F

fluorescence lifetime (in ClCCl): 9.7 ns
SMILES: COc1ccc(-c2c3ccccc3c(C#Cc3ccccc3)c3cc4ccccc4cc23)cc1

fluorescence lifetime (in CCOC(C)=O): 3.5 ns | fluorescence lifetime (in CS(C)=O): 4 ns
SMILES: COc1nc(Cl)nc(Nc2ccc3c4cccc5cccc(c6cccc2c63)c54)n1

fluorescence lifetime (in CN(C)C=O): 1 ns
SMILES: O=C([O-])c1ccc(C(=O)[O-])c2cc3ccccc3cc12

fluorescence lifetime (in C1CCCCC1): 0.1 ns and 0.13 ns | fluorescence lifetime (in CC#N): 0.1 ns and 0.13 ns
SMILES: CN(C)c1ccc(/C=C/c2nc3c(ccc4ccccc43)s2)cc1

— the Deep4Chem optical property database
